According to patent publication US12398154B2, “Azaquinazoline pan-KRas inhibitors” (Mirati Therapeutics, Inc., priority 2020, dated 2025):

Legend:
KRas G12D = KRas G12D (Homo sapiens, UniProt P01116, G12D); assay: biochemical;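 also: TR-FRET displacement binding assay on KRas, read after a one-hour incubation at room temperature, IC50 fitted from percent-of-control values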
Protocol: (§1) The ability of a compound to bind to KRas was measured using a TR-FRET displacement assay. […] After a 60-minute incubation at room temperature, the reaction was measured using a BMG LABTECH CLARIO star Plus via TR-FRET. […] The POC values were fit to a 4-parameter IC50 equation and the IC50 value reported.

KRas G12V = KRas G12V (Homo sapiens, UniProt P01116, G12V); assay: biochemical;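 also: KRas binding measured by TR-FRET displacement at room temperature, IC50 fitted from percent of control values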
Sequence of KRas G12V (P01116 1-169 isoform P01116-2 G12V): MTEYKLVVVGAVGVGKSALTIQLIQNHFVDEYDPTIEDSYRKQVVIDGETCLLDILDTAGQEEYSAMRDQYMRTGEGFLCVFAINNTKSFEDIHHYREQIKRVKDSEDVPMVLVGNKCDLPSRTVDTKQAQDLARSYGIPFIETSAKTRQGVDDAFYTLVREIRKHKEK
Protocol: as §1

KRas G12R = KRas G12R (Homo sapiens, UniProt P01116, G12R); assay: biochemical;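 also: TR-FRET displacement assay of compound binding to KRas, read after one hour at room temperature, potency from a four-parameter fit of percent-of-control values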
Sequence of KRas G12R (P01116 1-169 isoform P01116-2 G12R): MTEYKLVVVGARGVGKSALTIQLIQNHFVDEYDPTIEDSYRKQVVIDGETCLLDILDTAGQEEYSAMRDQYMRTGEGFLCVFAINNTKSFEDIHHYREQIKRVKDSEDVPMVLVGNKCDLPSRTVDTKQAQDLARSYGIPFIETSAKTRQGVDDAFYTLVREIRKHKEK
Protocol: as §1

KRas G12A = KRas G12A (Homo sapiens, UniProt P01116, G12A); assay: biochemical;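 also: binding to KRas measured by TR-FRET displacement after one hour at room temperature, IC50 from a four-parameter fit of percent-of-control values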
Sequence of KRas G12A (P01116 1-169 isoform P01116-2 G12A): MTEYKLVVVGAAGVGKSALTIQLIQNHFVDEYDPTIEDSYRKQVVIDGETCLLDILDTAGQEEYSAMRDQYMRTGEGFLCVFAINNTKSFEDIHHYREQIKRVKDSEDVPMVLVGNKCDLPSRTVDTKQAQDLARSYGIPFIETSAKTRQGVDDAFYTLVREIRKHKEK
Protocol: as §1

KRas G12S = KRas G12S (Homo sapiens, UniProt P01116, G12S); assay: biochemical;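 also: TR-FRET displacement binding to KRas, read after one hour incubation at room temperature, IC50 from four-parameter fit of percent of control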
Sequence of KRas G12S (P01116 1-169 isoform P01116-2 G12S): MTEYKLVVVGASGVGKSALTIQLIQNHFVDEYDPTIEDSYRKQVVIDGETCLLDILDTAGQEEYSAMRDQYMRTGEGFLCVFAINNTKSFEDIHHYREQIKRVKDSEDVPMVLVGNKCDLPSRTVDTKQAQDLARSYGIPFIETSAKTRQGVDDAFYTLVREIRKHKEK
Protocol: as §1

KRas G12C = KRas G12C (Homo sapiens, UniProt P01116, G12C); assay: biochemical;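 also: binding to KRas assessed by TR-FRET displacement after one hour incubation at room temperature, potency fitted from percent-of-control values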
Sequence of KRas G12C (P01116 1-169 isoform P01116-2 G12C): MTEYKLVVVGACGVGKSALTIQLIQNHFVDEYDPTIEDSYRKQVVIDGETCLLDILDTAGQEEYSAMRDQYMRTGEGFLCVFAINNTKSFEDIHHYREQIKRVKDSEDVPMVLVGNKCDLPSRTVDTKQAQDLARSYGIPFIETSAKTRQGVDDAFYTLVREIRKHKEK
Protocol: as §1

KRas WT = KRas WT (Homo sapiens, UniProt P01116); assay: biochemical;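 also: binding to KRas read as TR-FRET displacement after a one-hour room-temperature incubation, IC50 derived from percent-of-control values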
Sequence of KRas WT (P01116 1-169 isoform P01116-2): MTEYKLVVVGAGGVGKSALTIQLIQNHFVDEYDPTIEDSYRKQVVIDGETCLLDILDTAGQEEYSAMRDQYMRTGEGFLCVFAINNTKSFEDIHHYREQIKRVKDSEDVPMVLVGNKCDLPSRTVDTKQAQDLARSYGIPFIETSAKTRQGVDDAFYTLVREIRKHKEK
Protocol: as §1

pERK in MKN1 cells = assay: Inhibition of KRas phosphorylation of ERK (Cisbio HTRF pERK assay); conditions: Homo sapiens, MKN-1, 3 h, read-out: Inhibition (HTRF IC50) of KRas-mediated Phosphorylation of ERK, MKN1
pERK in PSN1 cells = assay: as above; conditions: Homo sapiens, PSN1, 3 h, read-out: Inhibition (HTRF IC50) of KRas-mediated Phosphorylation of ERK, PSN1
pERK in ASPC1 cells = assay: as above; conditions: Homo sapiens, ASPC1, read-out: Inhibition (HTRF IC50) of KRas-mediated Phosphorylation of ERK, AsPC-1
pERK in H727 cells = assay: as above; conditions: Homo sapiens, NCI-H727, read-out: Inhibition (HTRF IC50) of KRas-mediated Phosphorylation of ERK, H727
pERK in HCT116 cells = assay: as above; conditions: Homo sapiens, HCT-116, read-out: Inhibition (HTRF IC50) of KRas-mediated Phosphorylation of ERK, HCT116
Protocol: To harvest cells from flask using 0.05% Trypsin/EDTA solution. Add 10 mL of media to stop trypsinizing. Pipette the cells into a conical bottom 50 mL centrifuge tube and centrifuge 5 min×1000 rpm. • 2. Re-suspend the cell pellet in media, take a cell count, and then adjust the cell density using fresh media. • 3. Seed 6,000 cells into cell culture plate with 50 μL media. […] Incubate cell plate overnight in a 37° C., 5% CO2 incubator. • Compound titrations • 1. Use Tecan to complete the compound addition. Compounds start from 10 uM top, 3-fold dilution, and 10 doses. The final DMSO concentration is 0.8%. Dispensed 0.2 uM Trametinib as Min control. • 2. Incubate cell plate for 3 hrs in the incubator. • Detection with cisbio pERK HTRF kit • 1. […] At the end of the compound treatment, flick-off the media. • 3. Add 35 μL of lysis buffer per well using a Multidrop Combi. Then place on a plate agitator shaking at 300 rpm at 4° C. for 40 mins. • 4. Make up the HTRF antibody buffer. For each assay plate, mix 50 μL of d2-conjugate antibody with 950 μL of detection buffer. Similarly, mix 50 μL of Cryptate antibody with 950 μL of detection buffer. Then mix the two diluted antibodies together. • 5. Dispense 3.4 μL the antibody buffer to wells of an empty assay plate. Seal the plate and centrifuge plate 30 sec×1000 rpm. • 6. At the end of the 4° C. lysis, centrifuge the lysate plates 3 mins×1500 rpm. • 7. Use the Bravo to transfer 13.6 μL of lysate from cell culture plate to assay plate.
Then incubate assay plate for 2 hrs at room temperature. […] At the end of incubation, read plate on the Envision after centrifuging plate 30 sec× • 1000 rpm.

Sequence of KRas G12D (P01116 1-169 isoform P01116-2 G12D): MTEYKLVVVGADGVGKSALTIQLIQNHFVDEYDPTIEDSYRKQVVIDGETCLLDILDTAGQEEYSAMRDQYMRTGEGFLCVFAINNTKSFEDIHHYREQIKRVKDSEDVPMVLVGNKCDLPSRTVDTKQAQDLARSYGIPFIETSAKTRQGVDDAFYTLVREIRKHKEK

SMILES	IC50 (KRas G12D)	IC50 (KRas G12V)	IC50 (KRas G12R)	IC50 (KRas G12A)	IC50 (KRas G12S)	IC50 (KRas G12C)	IC50 (KRas WT)	IC50 (pERK in MKN1 cells)	IC50 (pERK in PSN1 cells)	IC50 (pERK in ASPC1 cells)	IC50 (pERK in H727 cells)	IC50 (pERK in HCT116 cells)
CCc1c(F)ccc2cc(O)cc(-c3ncc4c(N5CCC[C@]6(CC(=O)N6)C5)nc(OCC5(CN6CCCC6)CC5)nc4c3F)c12 [Example 319, (S)-6-(7-(8-ethyl-7-fluoro-3-hydroxynaphthalen-1-yl)-8-fluoro-2-((1-(pyrrolidin-1-ylmethyl)cyclopropyl)methoxy)pyrido[4,3-d]pyrimidin-4-yl)-1,6-diazaspiro[3.5]nonan-2-one]	≤ 2 nM	≤ 2 nM	≤ 2 nM	≤ 2 nM	≤ 2 nM	≤ 2 nM	≤ 2 nM	120 nM	≥ 10000 nM	433 nM	808 nM	6360 nM
C#Cc1c(F)ccc2cc(O)cc(-c3ncc4c(N5CC6C(=O)NC(=O)C6C5)nc(OC[C@@]56CCCN5C[C@H](F)C6)nc4c3F)c12 (stereo partly drawn) [Example 389, 5-(7-(8-ethynyl-7-fluoro-3-hydroxynaphthalen-1-yl)-8-fluoro-2-(((2R,7aS)-2-fluorohexahydro-1H-pyrrolizin-7a-yl)methoxy)pyrido[4,3-d]pyrimidin-4-yl)tetrahydropyrrolo[3,4-c]pyrrole-1,3(2H,3aH)-dione]	≤ 2 nM	≤ 2 nM	3 nM	≤ 2 nM	≤ 2 nM	≤ 2 nM	≤ 2 nM	95 nM	≥ 10000 nM	268 nM	970 nM	1090 nM
OCC1COCCN(c2nc(OC[C@@]34CCCN3C[C@H](F)C4)nc3c(F)c(-c4cc(O)cc5ccc(F)c(Cl)c45)ncc23)C1 (stereo partly drawn) [Example 420, 5-chloro-6-fluoro-4-(8-fluoro-2-(((2R,7aS)-2-fluorohexahydro-1H-pyrrolizin-7a-yl)methoxy)-4-(6-(hydroxymethyl)-1,4-oxazepan-4-yl)pyrido[4,3-d]pyrimidin-7-yl)naphthalen-2-ol]	3 nM	≤ 2 nM	4 nM	–	–	–	–	56 nM	≥ 10000 nM	859 nM	366 nM	1310 nM

Continued, values first:

IC50 (KRas G12D)	IC50 (KRas G12V)	IC50 (KRas G12R)	IC50 (KRas G12A)	IC50 (KRas G12S)	IC50 (KRas G12C)	IC50 (KRas WT)	IC50 (pERK in MKN1 cells)	IC50 (pERK in PSN1 cells)	IC50 (pERK in ASPC1 cells)	IC50 (pERK in H727 cells)	IC50 (pERK in HCT116 cells)	SMILES
≤ 2 nM	≤ 2 nM	≤ 2 nM	–	–	≤ 2 nM	≤ 2 nM	32 nM	9090 nM	484 nM	255 nM	300 nM	CCc1c(F)ccc2cc(O)cc(-c3ncc4c(N5CCC[C@]6(C5)NC(=O)NC6=O)nc(OCC5(CN6CCCC6)CC5)nc4c3F)c12 [Example 322, (R)-7-(7-(8-ethyl-7-fluoro-3-hydroxynaphthalen-1-yl)-8-fluoro-2-((1-(pyrrolidin-1-ylmethyl)cyclopropyl)methoxy)pyrido[4,3-d]pyrimidin-4-yl)-1,3,7-triazaspiro[4.5]decane-2,4-dione]
≤ 2 nM	40 nM	3 nM	–	–	–	–	46 nM	≥ 10000 nM	548 nM	903 nM	2560 nM	O=C1NC[C@]2(CCCN(c3nc(OC[C@@]45CCCN4C[C@H](F)C5)nc4c(F)c(-c5cc(O)cc6ccc(F)c(Cl)c56)ncc34)C2)N1 [Example 415, (S)-7-(7-(8-chloro-7-fluoro-3-hydroxynaphthalen-1-yl)-8-fluoro-2-(((2R,7aS)-2-fluorohexahydro-1H-pyrrolizin-7a-yl)methoxy)pyrido[4,3-d]pyrimidin-4-yl)-1,3,7-triazaspiro[4.5]decan-2-one]
≤ 2 nM	≤ 2 nM	≤ 2 nM	–	–	–	–	18 nM	3760 nM	1150 nM	239 nM	172 nM	Cc1c(F)ccc2cc(O)cc(-c3ncc4c(N5CCCC(CS(N)(=O)=O)C5)nc(OC[C@@]56CCCN5C[C@H](F)C6)nc4c3F)c12 (stereo partly drawn) [Example 461, 1-(1-(8-fluoro-7-(7-fluoro-3-hydroxy-8-methylnaphthalen-1-yl)-2-(((2R,7aS)-2-fluorohexahydro-1H-pyrrolizin-7a-yl)methoxy)pyrido[4,3-d]pyrimidin-4-yl)piperidin-3-yl)methanesulfonamide]
